In patent publication US9144595B2, “APLs for treating arthritis” (University of Tennessee Research Foundation, priority 2009, dated 2015):

Columns and labels:
[1] = test system: RA PBMC; experiment: 27 cytokines multiplex assay of 48 h RA PBMC culture supernatants; assay type: cell-based, human; settings: APL A12 10 μg/ml + α1(II) 50 μg/ml, 6 RA patients
Protocol: We assessed the ability of APL A12 added to cultures of PBMC to affect production of IFNγ and other Th1 and Th2 cytokines by the cultured PBMC stimulated with α1(II) from 18 RA patients, 16 of whom had known HLA DR B1 haplotypes. 16 of these patients were taking methothexate, 10 NSAIDS and 12 anti-TNF agents. One patient was taking Arava. Isolated PBMC were resuspended in Dulbecco's minimal essential medium containing penicillin (100 U/ml), streptomycin (100 μg/ml), 9% fetal calf serum (FCS), and non-essential amino acids thereafter referred to as “Complete Medium” at a concentration of 4×10^6 cells/ml. Aliquots (0.5 ml) of the cell suspension were dispensed into wells of 48 well tissue culture plates (NUNC, Roskilde, Denmark).

[2] = test system: RA CD4+ T cells; experiment: Intracellular IFNγ and IL-17 in CD4+ T cells of CII-stimulated RA PBMC (flow cytometry); assay type: cell-based, human; settings: A12 10 μg/ml co-incubated with CII 50 μg/ml, 5 days; one RA patient; FIG. 2
Source text: We assessed the effect of APL A12 added to cultures of RA PBMC stimulated with α1(II) on CD4^+ T cells expression of IFNγ and IL-17 as shown in FIG. 2.
The flow use an IFNγ scale on y-axis 295 and IL-17 on x-axis 290, 291, 292, 293, 294 (log scale). The results of the flow are shown for Control 210 including IFNγ+IL-17 flow 270 and IFNγ Control flow 285. The results of the flow are shown for CII+A12 220 including IFNγ+IL-17 flow 265 and IFNγ Control flow 280. The results of the flow are shown for CII 230 including IFNγ+IL-17 flow 260 and IFNγ Control flow 275. Columns 240, 250 represent IFNγ+IL-17 flow and IFNγ Control flow, respectively. Peripheral blood lymphocytes were placed in culture (2×10^6/well, 24 well plate) and stimulated with either CII alone (50 μg/ml), CII+A12 peptide (10 μg/ml), or PBS for 5 days. […] Cells were then collected and analyzed by flow cytometry using fluorochrome-labeled antibodies specific for CD4, CD8, CD69, IL-17 and IFNγ. […] Data are based on a minimum of 75,000 events analyzed. The IFNγ Controls (right panels) are based on the fluorescence minus one (FMO) approach whereby the antibody of IFNγ is omitted from these samples to make sure that no fluorochrome was spilling over into the IFNγ detector.

[3] = test system: splenocytes and lymph node cells from DR1 Transgenic mice; experiment: Cytokine secretion by splenocytes and lymph node cells of DR1 Transgenic mice immunized with CII or Analog A12; assay type: cell-based, mouse
Source text: One of the most important characteristics of the A12 analog peptide was its ability to induce a Th2-type cytokine secretion profile. In this set of experiments, DR1 transgenic mice were immunized with A12 peptide or CII emulsified with CFA. […] In contrast, cells from mice immunized with CII generated predominantly a Th1 response to the wild-type peptide. […] The ability to induce the secretion of Th2 cytokines may explain the profound suppressive effects A12 has on the development of CIA.
One of the most important characteristics of the A12 analog peptide is its ability to reduce a Th1 cytokine profile and induce a Th2-type cytokine secretion profile in humans and in DR1 transgenic mice. In work we have published, DR1 transgenic mice were immunized with A12 peptide or CII emulsified with CFA. […] In contrast, cells from mice immunized with CII generated multiple cytokines, but predominantly a Th1 response to the wild-type peptide. Importantly, although immunized with CII, they responded to A12 with only a Th2 response.

[4] = test system: Peyer's Patch cells of DR1 TCRtg+/+ mice; experiment: Oral APL A12: IL-17 and IL-10 in cultures of Peyer's Patch cells of DR1 TCRtg+/+ mice; assay type: in vivo, mouse
[5] = test system: RA PBMC; experiment: Stability of HC Peptide 1 stored at 4° C., tested on IFNγ production by RA PBMC; assay type: cell-based, human
Protocol: Approximately 70% of the patients screened should have one or more of the RA shared epitope alleles. If the trend we saw in the small preliminary data sample holds true for the larger sample size, the majority of APL A12 responders will have one or more of the shared epitopes. […] Each month we will prepare a fresh stock solution of APL A12 dissolved in PBS, filter sterilized and stored at 4° C. APL A12 stored at 4° C. in solution retains it biologic activity for >30 days. A fresh solution of α1(II) will also be prepared each month and stored at 4° C. and handled using sterile technique.
HC Peptide 1 was dissolved in phosphate buffered saline and stored at 4° C. for up to five months and then tested and compared in vitro with freshly prepared HC Peptide 1 to inhibit IFNγ production by RA patients PBMC stimulated by α1(II).

[6] = test system: Zap-70; experiment: Zap-70 phosphorylation in CD4+ T cells of DR1/TCR transgenic mice (flow cytometry); assay type: cell-based, mouse; settings: APCs prepulsed with peptide; data not shown
[7] = Immunogen Analog A12, cultured with 100 μg/ml A12
[8] = Immunogen Analog A12, cultured with 100 μg/ml PPD
[9] = Immunogen Analog A12, cultured with 100 μg/ml Wild-type Peptide
[10] = Immunogen Analog A12, cultured with 100 μg/ml α1(II)
[11] = Immunogen CII, cultured with 100 μg/ml A12
[12] = mice gavaged with 50 μg APL A12 9 times over 2 weeks, cells cultured with PBS
[13] = mice gavaged with 50 μg APL A12, cells cultured with APL A12 50 μg/ml
[14] = mice gavaged with 50 μg APL A12, cells cultured with CII263-270 50 μg/ml
[15] = mice gavaged with PBS, cells cultured with APL A12 50 μg/ml

LGPKGQTGEBGIAGAKGDQGPKGEBGPA [APL A12]
IL-1ra [1]: 2013 ± 220 pg/mL | IL-2 [1]: 6 ± 0.9 pg/mL | IL-10 [1]: 555 ± 104 pg/mL | IP-10 [1]: 114 ± 91 pg/mL | PDGF-bb [1]: 39 ± 25 pg/mL | RANTES [1]: 750 ± 183 pg/mL | TNFα [1]: 84 ± 17 pg/mL | decrease in the number of IFNγ-producing T cells [2]: 75% | reduction in IL-17 producing T cells [2]: 42% | IFN-γ [3, 7]: 0 pg/mL | IL-10 [3, 7]: 808 pg/mL | Il-4 [3, 7]: 31 pg/mL | IFN-γ [3, 8]: 2,225 pg/ml | IL-10 [3, 8]: 248 pg/mL | Il-4 [3, 8]: 0 pg/mL | IFN-γ [3, 9]: 175 pg/mL | IL-10 [3, 9]: 792 pg/mL | Il-4 [3, 9]: 23 pg/mL | IFN-γ [3, 10]: 0 pg/mL | IL-10 [3, 10]: 680 pg/mL | Il-4 [3, 10]: 45 pg/mL | IFN-γ [3, 11]: 0 pg/mL | IL-10 [3, 11]: 610 pg/mL | Il-4 [3, 11]: 40 pg/mL | II-10 Levels in Peyer's Patch Cultures [4, 12]: 116 pg/mL | IL-17 Levels in Peyer's Patch Cultures [4, 12]: 2.4 pg/mL | II-10 Levels in Peyer's Patch Cultures [4, 13]: 105 pg/mL | IL-17 Levels in Peyer's Patch Cultures [4, 13]: 1.8 pg/mL | II-10 Levels in Peyer's Patch Cultures [4, 14]: 94 pg/mL | IL-17 Levels in Peyer's Patch Cultures [4, 14]: 2.4 pg/mL | II-10 Levels in Peyer's Patch Cultures [4, 15]: 27 pg/mL | IL-17 Levels in Peyer's Patch Cultures [4, 15]: 16 pg/mL | IFNγ Concentration in PBMC Supernatants ([5]; A12 0.1 μg/ml + PBS, A12 stored at 4° C. 6 Days): 26 pg/mL | IFNγ Concentration in PBMC Supernatants ([5]; A12 0.1 μg/ml + PBS, A12 stored at 4° C. 78 Days): 0 pg/mL | IFNγ Concentration in PBMC Supernatants ([5]; A12 0.1 μg/ml + PBS, A12 stored at 4° C. 143 Days): 0 pg/mL | IFNγ Concentration in PBMC Supernatants ([5]; A12 0.1 μg/ml + α1(II) 50 μg/ml, A12 stored at 4° C. 6 Days): 45 pg/mL | IFNγ Concentration in PBMC Supernatants ([5]; A12 0.1 μg/ml + α1(II) 50 μg/ml, A12 stored at 4° C. 78 Days): 10 pg/mL | IFNγ Concentration in PBMC Supernatants ([5]; A12 0.1 μg/ml + α1(II) 50 μg/ml, A12 stored at 4° C. 143 Days): 22 pg/mL | IFNγ Concentration in PBMC Supernatants ([5]; A12 1 μg/ml + PBS, A12 stored at 4° C. 6 Days): 10 pg/mL | IFNγ Concentration in PBMC Supernatants ([5]; A12 1 μg/ml + PBS, A12 stored at 4° C. 78 Days): 0 pg/mL | IFNγ Concentration in PBMC Supernatants ([5]; A12 1 μg/ml + PBS, A12 stored at 4° C. 143 Days): 0 pg/mL | IFNγ Concentration in PBMC Supernatants ([5]; A12 1 μg/ml + α1(II) 50 μg/ml, A12 stored at 4° C. 6 Days): 23 pg/mL | IFNγ Concentration in PBMC Supernatants ([5]; A12 1 μg/ml + α1(II) 50 μg/ml, A12 stored at 4° C. 78 Days): 37 pg/mL | IFNγ Concentration in PBMC Supernatants ([5]; A12 1 μg/ml + α1(II) 50 μg/ml, A12 stored at 4° C. 143 Days): 6 pg/mL | IFNγ Concentration in PBMC Supernatants ([5]; A12 10 μg/ml + PBS, A12 stored at 4° C. 6 Days): 0 pg/mL | IFNγ Concentration in PBMC Supernatants ([5]; A12 10 μg/ml + PBS, A12 stored at 4° C. 78 Days): 0 pg/mL | IFNγ Concentration in PBMC Supernatants ([5]; A12 10 μg/ml + PBS, A12 stored at 4° C. 143 Days): 0 pg/mL | IFNγ Concentration in PBMC Supernatants ([5]; A12 10 μg/ml + α1(II) 50 μg/ml, A12 stored at 4° C. 6 Days): 77 pg/mL | IFNγ Concentration in PBMC Supernatants ([5]; A12 10 μg/ml + α1(II) 50 μg/ml, A12 stored at 4° C. 78 Days): 82 pg/mL | IFNγ Concentration in PBMC Supernatants ([5]; A12 10 μg/ml + α1(II) 50 μg/ml, A12 stored at 4° C. 143 Days): 21 pg/mL | stability: ability to inhibit IFNγ production by α1(II) stimulated RA PBMC after storage ([5]; dissolved in phosphate buffered saline, stored at 4° C. for up to 5 months): retained its ability to inhibit IFNγ production | time for which biologic activity is retained ([5]; stored at 4° C. in solution (PBS)): > 30 days | Zap-70 phosphorylation [6]: little effect
